For ten molecules, Inhibition effect results are on record in ChEMBL document CHEMBL1136087, “Synthesis of radiolabeled biphenylsulfonamide matrix metalloproteinase inhibitors as new potential PET cancer imaging agents” (Bioorg Med Chem Lett, 2003).

SMILES strings stand for the structures.

In this experiment the target is Collagenase 3 (Homo sapiens) (UniProt P45452). In words: Inhibition of human matrix metalloprotease-13 at 20 nM.
Turning to `COC(=O)[C@@H](NS(=O)(=O)c1ccc(-c2ccc([N+](=O)[O-])cc2)cc1)C(C)C`, the Inhibition effect worked out at 0.883. For `CC(C)[C@H](NS(=O)(=O)c1ccc(-c2ccc([N+](=O)[O-])cc2)cc1)C(=O)O`, the Inhibition effect came to 0.897. The figure for `COC(=O)[C@@H](NS(=O)(=O)c1ccc(-c2cccc(OC)c2)cc1)C(C)C` is 0.939; for `COC(=O)[C@@H](NS(=O)(=O)c1ccc(-c2ccc(F)cc2)cc1)C(C)C` it is 0.91. Then `COC(=O)[C@@H](NS(=O)(=O)c1ccc(-c2cccc(F)c2)cc1)C(C)C`, with 0.919; and `COC(=O)[C@@H](NS(=O)(=O)c1ccc(-c2ccccc2OC)cc1)C(C)C`, with 0.942; and `CC(C)[C@H](NS(=O)(=O)c1ccc(-c2ccc(F)cc2)cc1)C(=O)O`, with 0.918. Then `COC(=O)[C@@H](NS(=O)(=O)c1ccc(-c2ccc(OC)cc2)cc1)C(C)C`, with 0.935; and `COc1ccc(-c2ccc(S(=O)(=O)N[C@H](C(=O)O)C(C)C)cc2)cc1`, with 0.938; and `COC(=O)[C@@H](NS(=O)(=O)c1ccc(-c2ccccc2F)cc1)C(C)C`, with 0.922.
